Earlier results on one molecule are cited in patent US12616707B2, “Compositions and methods for improving gut health” (Plexus Worldwide, LLC., priority 2017, dated 2026).

For data set [1], the system named is DSS-induced colitis model. The note with it: chlorogenic acid supplementation.
Where [2] appears, read: 0.02% (wt/wt) in high-fat diet vs high-fat control group.

In the case of `O=C(/C=C/c1ccc(O)c(O)c1)O[C@@H]1C[C@](O)(C(=O)O)C[C@@H](O)[C@H]1O` [chlorogenic acid], the IL-1β expression result in data set [1] is recorded as “significant suppression”. Further, in the data set on high-fat fed mice (setting [2]), the Body weight result is on record as “significantly lowered”, the Plasma insulin levels result is given as “significantly lowered”, the Plasma leptin levels entry was “significantly lowered” and the Visceral fat mass entry is given as “significantly lowered”. Also, in the data set with high-fat fed mice (high-fat diet), the “Cholesterol concentrations (plasma, adipose tissue and heart)” value is recorded as “lowered”; the “Triglyceride concentrations (plasma, liver and heart)” value is recorded as “lowered”.
